Assay results: article PMC5725799, “Comparative binding properties of the tau PET tracers THK5117, THK5351, PBB3, and T807 in postmortem Alzheimer brains” (Alzheimer's Research & Therapy, 2017)
Several values for one entry are separate records, joined by “and”; a condition that tells them apart may be missing. Equal values may be shown once. One block for each compound: values may come before it.

What was measured:
[1] = target: tau (Homo sapiens, UniProt P10636); assay: Competition binding assay with ^3H-THK5351 in postmortem hippocampus brain homogenates; details: vs ^3H-THK5351 1.5 nM, AD hippocampus homogenate; read-out: Ki2 (high-affinity site)
Sequence of tau (Homo sapiens, UniProt P10636) (P10636 623-695 limits assumed): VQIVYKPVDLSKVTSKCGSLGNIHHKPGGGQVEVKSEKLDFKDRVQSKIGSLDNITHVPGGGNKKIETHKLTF
Method: Postmortem brain tissues from three patients with AD and three healthy control subjects were used for the in vitro binding assays. All the brain tissue, which came from the Netherlands Brain Bank, had been homogenized in PBS containing a protease/phosphatase inhibitor (see Table 1).
After 2-h incubation at room temperature, the binding assay was terminated by filtration through glass fiber filters presoaked for at least 3 h in 0.3% polyethylenimine. To do so, the filters were rinsed and filtered three times using cold binding buffer, and then the radiation on the filter was quantified using a Beckman Coulter scintillation counter. The data for the regional binding distribution studies were analyzed using Prism version 7.0 software for Mac (GraphPad Software Inc., La Jolla, CA, USA), and two-way analysis of variance with multiple comparisons was performed.

[2] = target: T1, monoamine oxidase B (MAO-B) (Homo sapiens, UniProt P27338); assay: Competition binding with ^3H-deprenyl in hippocampus and putamen brain homogenates (off-target binding); details: vs ^3H-deprenyl 10 nM, two AD cases
T1 construct: postmortem brain homogenates from the hippocampus and putamen (0.2 mg/ml tissue) of two patients with AD; tissue Netherlands Brain Bank; host or cells: postmortem human AD hippocampus and putamen homogenate
T1 sequence (P27338 1-520): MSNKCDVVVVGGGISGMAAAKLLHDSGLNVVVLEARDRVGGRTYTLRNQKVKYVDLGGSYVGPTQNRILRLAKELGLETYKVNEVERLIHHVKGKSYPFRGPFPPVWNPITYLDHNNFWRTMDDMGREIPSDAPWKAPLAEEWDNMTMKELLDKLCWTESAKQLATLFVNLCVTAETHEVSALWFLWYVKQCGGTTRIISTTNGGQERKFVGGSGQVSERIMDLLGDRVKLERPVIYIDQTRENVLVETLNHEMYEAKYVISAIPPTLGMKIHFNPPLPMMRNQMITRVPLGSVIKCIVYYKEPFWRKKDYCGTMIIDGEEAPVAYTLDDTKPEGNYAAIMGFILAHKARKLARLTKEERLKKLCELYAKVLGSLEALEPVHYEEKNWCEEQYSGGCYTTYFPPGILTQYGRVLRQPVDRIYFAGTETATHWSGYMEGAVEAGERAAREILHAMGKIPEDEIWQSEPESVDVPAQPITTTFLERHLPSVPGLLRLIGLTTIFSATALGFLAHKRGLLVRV
Method: Competition binding studies using postmortem brain homogenates from the hippocampus and putamen (0.2 mg/ml tissue) of two patients with AD were performed using ^3H-deprenyl (10 nM in Na-K phosphate buffer, pH 7.4) and increasing concentrations of unlabeled THK5117 (10^−14 to 10^−5 M) and T807 (10^−14 to 10^−5 M) to determine the off-target binding of the tau PET tracers. After 2-h incubation at room temperature, the binding assay was terminated by filtration through glass fiber filters presoaked for at least 3 h in 0.3% polyethylenimine. To do so, the filters were rinsed and filtered three times using cold binding buffer, and then the radiation on the filter was quantified using a Beckman Coulter scintillation counter. The data from all the binding studies were analyzed using Prism version 7.0 software.

[3] = test system: tau; assay: ^3H-THK5351 competition autoradiography with unlabeled THK5351, T807 and deprenyl; type: binding, human; details: cortical areas
Method: Six adjacent sections from AD1 (see Table 1) were used for competition autoradiography of unlabeled THK5351, T807, and deprenyl. After reaching room temperature, the frozen sections were preincubated for 10 minutes with PBS (pH 7.4) and then incubated for 1 h at room temperature with ^3H-THK5351 (1.5 nM) in addition to 10 μM unlabeled THK5351; 10 μM unlabeled deprenyl; 10 μM unlabeled T807; 10 μM unlabeled THK5351 and 10 μM unlabeled deprenyl; 10 μM unlabeled T807 and 10 μM unlabeled deprenyl. The sections were rinsed three times in cold buffer for 5 minutes, followed by a quick dip in cold distilled water. Nonspecific binding was determined using 10 μM unlabeled THK5351 or 10 μM unlabeled THK5117. […]
(§1) For all the autoradiography studies, the regions of interest were drawn manually on the autoradiogram using multigauge software and were used for the semiquantitative analyses. Photostimulated luminescence per square millimeter (PSL/mm^2) was transformed to picomoles per cubic millimeter using a transformation factor that took into account the resolution of the image, the pixel value for the concentration of ligand, and the thickness of the sections: (PSL/mm^2 value)/([pixel value per pmol] × [(resolution/1000)^2] × [cryosection thickness]/1000).

[4] = test system: tau; assay: ^18F-T807 autoradiography and competition on large frozen AD brain sections; type: binding, human; design: Total Binding / NSP Binding: unit not given here; details: vs Unlabelled T807
Method: Adjacent sections were used for autoradiography with ^11C-THK5351, ^11C-PBB3, and ^18F-T807. The frozen sections were allowed to reach room temperature, incubated for 30 minutes at room temperature with ^11C-THK5351 (0.4–0.56 nM; specific activity 356–532 GBq/μmol) or ^11C-PBB3 (0.25–0.34 nM; specific activity 442–794 GBq/μmol) or for 55 minutes at room temperature with ^18F-T807 (0.04 nM; specific activity 281 GBq/μmol). We used 10 μM unlabeled THK5351, 10 μM unlabeled PBB3, and 10 μM unlabeled T807 to determine the extent of nonspecific binding for each tracer. The sections were rinsed three times for 5 minutes each with cold binding buffer, followed by a quick dip in cold distilled water. The sections were dried and exposed for 1 h (for ^11C-THK5351 and ^11C-PBB3) or for 3 h (^18 F-T807) on a phosphor imaging plate and then read using the BAS-2500 phosphor imager.
as §1

Ki [1]: 78 nM
Ki ([2]; hippocampus homogenate): 227 nM and > 200 nM
Ki ([2]; putamen homogenate): 135 nM and ~150 nM
^3H-THK5351 binding displaced [3]: 70–80%
Structure (SMILES): Fc1ccc(-c2ccc3c(c2)[nH]c2ccncc23)cn1 [T807]

% of specific binding ([4]; AD1, Basal ganglia): 24%
NSP Binding ([4]; AD1, Basal ganglia): 1895
Specific Binding ([4]; AD1, Basal ganglia): 599
Total Binding ([4]; AD1, Basal ganglia): 2495
% of specific binding ([4]; AD1, Frontal cortex): 41%
NSP Binding ([4]; AD1, Frontal cortex): 2028
Specific Binding ([4]; AD1, Frontal cortex): 1388
Total Binding ([4]; AD1, Frontal cortex): 3416
% of specific binding ([4]; AD1, Insula): 33%
NSP Binding ([4]; AD1, Insula): 1851
Specific Binding ([4]; AD1, Insula): 893
Total Binding ([4]; AD1, Insula): 2744
% of specific binding ([4]; AD1, Temporal cortex): 28%
NSP Binding ([4]; AD1, Temporal cortex): 2018
Specific Binding ([4]; AD1, Temporal cortex): 784
Total Binding ([4]; AD1, Temporal cortex): 2802
% of specific binding ([4]; AD2, Basal ganglia): 25%
NSP Binding ([4]; AD2, Basal ganglia): 1713
Specific Binding ([4]; AD2, Basal ganglia): 567
Total Binding ([4]; AD2, Basal ganglia): 2280
% of specific binding ([4]; AD2, Frontal cortex): 24%
NSP Binding ([4]; AD2, Frontal cortex): 1901
Specific Binding ([4]; AD2, Frontal cortex): 586
Total Binding ([4]; AD2, Frontal cortex): 2488
Total Binding ([4]; AD2, Insula): 2469
% of specific binding ([4]; AD2, Temporal cortex): 46%
NSP Binding ([4]; AD2, Temporal cortex): 1801
Specific Binding ([4]; AD2, Temporal cortex): 1526
Total Binding ([4]; AD2, Temporal cortex): 3327
% of specific binding ([4]; AD3, Basal ganglia): 31%
NSP Binding ([4]; AD3, Basal ganglia): 1639
Specific Binding ([4]; AD3, Basal ganglia): 733
Total Binding ([4]; AD3, Basal ganglia): 2372
% of specific binding ([4]; AD3, Frontal cortex): 40%
NSP Binding ([4]; AD3, Frontal cortex): 1916
Specific Binding ([4]; AD3, Frontal cortex): 1296
Total Binding ([4]; AD3, Frontal cortex): 3212
% of specific binding ([4]; AD3, Insula): 22%
NSP Binding ([4]; AD3, Insula): 1836
Specific Binding ([4]; AD3, Insula): 509
Total Binding ([4]; AD3, Insula): 2346
% of specific binding ([4]; AD3, Temporal cortex): 16%
NSP Binding ([4]; AD3, Temporal cortex): 1975
Specific Binding ([4]; AD3, Temporal cortex): 374
Total Binding ([4]; AD3, Temporal cortex): 2349
Structure (SMILES): [18F]c1ccc(-c2ccc3c(c2)[nH]c2ccncc23)cn1 [^18F-T807, 7-(6-[^18F]fluoropyridin-3yl)-5H-pyrido(4,3-b)indole]
